Experimental data reported in patent US12240870B2, “Sequencing method for CAR T cell therapy” (Purdue Research Foundation, priority 2018, dated 2025).

Key:
MDA-MB-231 xenografts = test: EC17 dose finding and CRS assessment in MDA-MB-231 tumor-bearing mice; type: in vivo; settings: for human IFNγ in mouse plasma, fold over tumor-bearing mice with CAR-T cells only: all EC17 treated tumor cohorts
Text: Panel A: Schematic diagram to show dose scheduling of CAR-T cells (˜10 million “clinical facsimile”) plus EC17 dosed 3 different ways in NSG mice without or with pre-established MDA-MB-231 xenografts. Tumor-free mice received EC17 SIW 500 nmol/kg (2 doses on days 2 and 10). Tumor-bearing mice received EC17 as follows: EC17 SIW 500 nmol/kg (5 doses on days 2, 10, 17, 24, and 31), EC17 M/Th/M_Escalation-1 (repeats of 5/50/500 nmol/kg on Monday/Thursday/Monday followed by 1-week break, i,e. on days 2, 6, 10, 17, 20, 24, and 31), or EC17 M/Th/M_Escalation-2 (repeats of 5/100/1000 nmol/kg on Monday/Thursday/Monday followed by 1-week break, i.e. days 2, 6, 10, 17, 20, 24, and 31). Panel B: Systemic levels of human IFNγ on a log 2 scale detected in mouse plasma on days 11 and 12 after CAR-T cell injection in tumor-bearing versus tumor-free mice (i.e., ˜20 and 42 hours after the previous EC17 dose in all treated cohorts). Panel C: Circulating CAR-T cells in mouse blood identified as human CD3ε+ EGFRt+ events by flow cytometry and enumerated per 100 μL of whole blood. Panel D: Measurements of change in body weight and tumor volume in tumor-bearing mice that received CAR-T cells only or CAR-T cells plus EC17 dosed 3 different ways (dashed lines indicated each EC17 dose). n=5 mice per group. All data represent mean±s.e.m. * p<0.05 by one-way ANOVA test.
All animal care and use were performed according to NIH guidelines and in compliance with protocols approved by the Purdue University Animal Use and Care Committee. Female 4 to 5-week-old NOD/SCID gamma (NSG™) mice (stock number: 005557) were purchased from The Jackson Laboratory (Bar Harbor, ME). Unless specifically indicated, all animals were maintained on a FA-deficient diet (TestDiet, St. Louis, MO) upon arrival and throughout the study. To establish subcutaneous xenografts, MDA-MB-231 and HOS-FRα were implanted in the right flank region at 2.5×10^6 and 1×10^6 cells per animal, respectively. For intravenous xenografts, THP1-FRβ cells were inoculated at 5×10^6 cells per animal. Subcutaneous tumors were measured 2-3 times per week with a caliper and calculated using the ellipsoidal formula (length×width^2)/2. […] All animal doses (CAR-T cells, EC17, sodium fluorescein) were given intravenously.
In a therapeutic setting, EC17 CAM can be given before or after CAR-T cell injection. As described herein, the first dose of EC17 was administered 2-3.5 days after CAR-T cells to allow for an observation period of human T cells in tumor-bearing mice. Two batches of unsorted E2-CAR-T cells (23% or 39% EGFRt+, 1:1 CD4/CD8) were used for in vivo studies. On the day of infusion for each experiment (day 0), frozen CAR-T cells were quickly thawed at 37° C., washed 2× with Dulbecco's 1×PBS (pH 7.4) and injected into the tail vein at desired EGFRt+ E2-CAR-T cell doses. In addition, a small aliquot of CAR-T cells was analyzed by flow cytometry for CD4 to CD8 ratio and differentiation status of CAR-T cells. On the first day of EC17 dose, tumor-bearing animals were randomly assigned into groups according to their tumor sizes or the same number of days post intravenous implantation (i.e., THP1-FRβ).
For MDA-MB-231 studies, mice received a high dose (˜10 million) of a “clinical facsimile” of E2-CAR-T cells (˜39% EGFRt+) with a low differentiation profile (FIG. 9). Two days later, 3 different treatment regimens of EC17 were started at an average tumor size of ˜293±39 mm^3 (FIG. 12). The EC17 dosing was given once-a-week (SIW) at 500 nmol/kg on Mondays, or as escalating doses of 5, 50 or 100, and 500 or 1000 nmol/kg (i.e., 5/50/500 or 5/100/1000) on Monday, Thursday, and Monday with a 6-day break in-between cycles. Control mice were left untreated (received CAR-T cells but no EC17). For comparison, a cohort of tumor-free littermates also received the same number of CAR-T cells without or with EC17 SIW at 500 nmol/kg. […]

[1] = EC17 dose finding and CRS assessment in tumor-free mice; type: in vivo, NSG mice
Text: Panel A: Schematic diagram to show dose scheduling of CAR-T cells (˜10 million “clinical facsimile”) plus EC17 dosed 3 different ways in NSG mice without or with pre-established MDA-MB-231 xenografts. Tumor-free mice received EC17 SIW 500 nmol/kg (2 doses on days 2 and 10). Tumor-bearing mice received EC17 as follows: EC17 SIW 500 nmol/kg (5 doses on days 2, 10, 17, 24, and 31), EC17 M/Th/M_Escalation-1 (repeats of 5/50/500 nmol/kg on Monday/Thursday/Monday followed by 1-week break, i,e. on days 2, 6, 10, 17, 20, 24, and 31), or EC17 M/Th/M_Escalation-2 (repeats of 5/100/1000 nmol/kg on Monday/Thursday/Monday followed by 1-week break, i.e. days 2, 6, 10, 17, 20, 24, and 31). Panel B: Systemic levels of human IFNγ on a log 2 scale detected in mouse plasma on days 11 and 12 after CAR-T cell injection in tumor-bearing versus tumor-free mice (i.e., ˜20 and 42 hours after the previous EC17 dose in all treated cohorts). Panel C: Circulating CAR-T cells in mouse blood identified as human CD3ε+ EGFRt+ events by flow cytometry and enumerated per 100 μL of whole blood. Panel D: Measurements of change in body weight and tumor volume in tumor-bearing mice that received CAR-T cells only or CAR-T cells plus EC17 dosed 3 different ways (dashed lines indicated each EC17 dose). n=5 mice per group. All data represent mean±s.e.m. * p<0.05 by one-way ANOVA test. […]

Compound: Nc1nc2ncc(CNc3ccc(C(=O)N[C@@H](CCC(=O)NCCNC(=S)Nc4ccc(-c5c6ccc(=O)cc-6oc6cc(O)ccc56)c(C(=O)O)c4)C(=O)O)cc3)nc2c(=O)[nH]1 [EC17, FA-(γ)-ethylenediamine-FITC]
- cures (MDA-MB-231 xenografts; EC17-treated cohorts (SIW, Escalation-1, Escalation-2)): 100%
- body weight loss (MDA-MB-231 xenografts; EC17 Escalation-2 regimen 5/100/1000 nmol/kg M/Th/M): persistent body weight loss
- onset of CRS and body weight loss (MDA-MB-231 xenografts; EC17 SIW at 500 nmol/kg): earliest onset of CRS and body weight loss
- human IFNγ in mouse plasma, fold over tumor-bearing mice with CAR-T cells only (MDA-MB-231 xenografts; day 11 (~20 hours after previous EC17 dose), ~10 million CAR-T): ~30 ×
- human IFNγ in mouse plasma, fold over tumor-bearing mice with CAR-T cells only (MDA-MB-231 xenografts; day 12 (~42 hours after previous EC17 dose), ~10 million CAR-T): ~10 ×
- body weight loss (MDA-MB-231 xenografts; tumor-bearing cohorts, continued EC17 dosing independent of the regimen): significant body weight losses
- CRS grade (MDA-MB-231 xenografts; tumor-bearing cohorts, continued EC17 dosing independent of the regimen, ~10 million CAR-T): 2-3
- body weight loss ([1]; tumor-free mice, two weekly doses of EC17 at 500 nmol/kg): no CRS symptoms (grade 0 out of a 0-5 scale) or body weight loss was observed
- human IFNγ in mouse plasma ([1]; tumor-free, CAR-T cells plus EC17, days 11 and 12): low levels of IFNγ were detected
